This passage reports EC50 and IC50 results from BindingDB's records for doi:10.1021/cb400452z (2013).

Experiment [1] concerns the target T1, Serine/threonine-protein kinase PKH2 [1-944] (Candida albicans (strain SC5314 / ATCC MYA-2876), UniProt Q5A3P6).
T1 construct: 1-944
T1 sequence (Q5A3P6 whole entry): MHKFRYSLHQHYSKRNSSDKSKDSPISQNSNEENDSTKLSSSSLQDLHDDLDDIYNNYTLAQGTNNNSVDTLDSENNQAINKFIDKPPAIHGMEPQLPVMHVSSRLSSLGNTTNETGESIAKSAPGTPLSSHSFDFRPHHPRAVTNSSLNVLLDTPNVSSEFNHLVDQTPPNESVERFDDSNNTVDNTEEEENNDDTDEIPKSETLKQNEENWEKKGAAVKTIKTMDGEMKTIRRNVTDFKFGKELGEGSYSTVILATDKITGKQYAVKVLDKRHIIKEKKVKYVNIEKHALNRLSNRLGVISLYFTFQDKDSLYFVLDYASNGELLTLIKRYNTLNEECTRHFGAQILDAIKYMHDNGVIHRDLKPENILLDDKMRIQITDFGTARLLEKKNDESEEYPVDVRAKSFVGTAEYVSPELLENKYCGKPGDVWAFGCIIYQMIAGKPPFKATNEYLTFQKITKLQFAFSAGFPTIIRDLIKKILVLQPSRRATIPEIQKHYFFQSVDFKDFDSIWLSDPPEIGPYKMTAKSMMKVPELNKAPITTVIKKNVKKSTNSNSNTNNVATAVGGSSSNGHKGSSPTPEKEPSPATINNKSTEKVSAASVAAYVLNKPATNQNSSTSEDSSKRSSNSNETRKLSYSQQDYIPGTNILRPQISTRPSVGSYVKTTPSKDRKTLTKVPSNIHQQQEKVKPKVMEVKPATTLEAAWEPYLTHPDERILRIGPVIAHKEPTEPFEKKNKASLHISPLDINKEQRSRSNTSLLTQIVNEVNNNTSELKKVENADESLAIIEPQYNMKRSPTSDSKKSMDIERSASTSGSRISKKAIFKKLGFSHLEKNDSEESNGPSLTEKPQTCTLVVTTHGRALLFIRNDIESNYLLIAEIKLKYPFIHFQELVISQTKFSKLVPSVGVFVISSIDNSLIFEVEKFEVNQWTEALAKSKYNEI
As to the kind of experiment: AlphaScreen Assay. The following applies: pH 7.4. How it is done: (§1) The AlphaScreen Assay (Perkin Elmer) was performed according to the manufacturer's protocol in 384-well microtiter plates. Incubations were performed in white 384-well microtiter plates containing 20uL of a reaction mix (50mM Tris-HCl pH 7.4, 100mM NaCl, 1mM dithiotreitol, 0.01% (v/v) Tween-20, 0.1% (w/v) BSA, 1mM DMSO, 100nM His-CaPkh2 or 100nM His-PDK1, 50nM Biotin-PIFtide, and the indicated concentrations of unlabeled PIF-tide or small compounds) and 5uL of beads. 5uL of beads solution containing nickel chelate-coated acceptor beads and streptavidin-coated donor beads (20ug/mL final concentrations) was added to the reaction mix. The reaction mix and the beads were incubated in the dark for 45 min at RT and the emission of light from the acceptor beads was measured in the EnVision reader (Perkin Elmer) and analyzed using the GraphPad Prism software.

Experiment [2] deals with T2, 3-phosphoinositide-dependent protein kinase 1 (Homo sapiens, UniProt O15530).
T2 sequence (O15530 whole entry): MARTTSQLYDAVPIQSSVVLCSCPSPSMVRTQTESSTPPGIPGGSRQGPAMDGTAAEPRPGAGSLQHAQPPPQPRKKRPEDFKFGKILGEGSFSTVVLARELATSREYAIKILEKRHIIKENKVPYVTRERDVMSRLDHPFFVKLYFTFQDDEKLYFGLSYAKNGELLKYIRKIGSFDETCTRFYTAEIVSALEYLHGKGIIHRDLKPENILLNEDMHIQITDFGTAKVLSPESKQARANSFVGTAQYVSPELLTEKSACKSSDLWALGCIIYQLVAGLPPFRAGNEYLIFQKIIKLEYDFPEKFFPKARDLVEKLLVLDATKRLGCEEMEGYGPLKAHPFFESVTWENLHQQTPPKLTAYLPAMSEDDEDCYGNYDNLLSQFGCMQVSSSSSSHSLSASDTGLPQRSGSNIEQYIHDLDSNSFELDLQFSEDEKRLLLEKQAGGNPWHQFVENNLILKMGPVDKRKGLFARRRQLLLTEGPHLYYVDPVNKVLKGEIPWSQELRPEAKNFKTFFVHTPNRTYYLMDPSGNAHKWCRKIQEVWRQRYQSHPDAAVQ
Description: Protein Kinase Activity Assay. The following applies: pH 7.4; 0 °C. How it is done: (§2) A 20ul mix containing 50mM Tris pH 7.5, 0.05mg/ml BSA, 0.1% β-mercaptoethanol, 10mM MgCl2, 100μM [γ-P32]ATP (5-50cpm/pmol), 0.003% Brij, 150-500ng PDK1 or CaPkh2, and T308tide (from 0.1 to 1mM) was pre-incubated at room temperature (22¿C) for 15 minutes. The kinase reaction was initiated by the addition of the ATP-Mg mixture, followed by the addition of 5μl phosphoric acid (final concentration 0.01%) to stop the reaction. The PDK1 activity assay was performed in a 96 well format and 4μl aliquots spotted on p81 phosphocellulose papers (Whatmann) using ep motion 5070 (Eppendorf), washed in 0.01% phosphoric acid, dried, and then exposed and analyzed using PhophoImager technology (FLA-9000 Starion, Fujifilm). The specific activity of CaPkh2 and PDK1 was estimated using 100μM T308tide.

Experiment [3] has as its target T1, Serine/threonine-protein kinase PKH2 [1-944]. As to the kind of experiment: Protein Kinase Activity Assay. The settings on record: pH 7.4; 0 °C. How it is done: as §2
For experiment [4], the target named is T2, 3-phosphoinositide-dependent protein kinase 1. Description: AlphaScreen Assay. The following applies: pH 7.4; room temperature. How it is done: as §1

The structures appear in SMILES notation.

Regarding `O=C(O)CSC(CC(=O)c1ccc(Cl)cc1)c1ccccc1Sc1ccc(Cl)cc1` (stereo not drawn) [PS77], the response in experiment [1] was half-maximal at 44 µM (EC50). Also, the values for the IC50 in experiment [2] and in experiment [3] were 38 µM and 17 µM, respectively.

On to `O=C(C[C@@H](c1ccccc1)C(C(=O)O)C(=O)O)c1ccc(C(F)(F)F)cc1`, for which the figures for the EC50 in experiment [4] and in experiment [1] (room temperature) were 39 µM and 60 µM, respectively.

Consider `O=C(O)CSC(CC(=O)c1ccc(Cl)cc1)c1ccccc1` (stereo not drawn), for which, in experiment [1] (room temperature), the EC50 (as a rule, the concentration needed to bring the measured effect to its halfway point) was determined as 85 µM. This counts as double-digit micromolar.

Consider `O=C(CC(c1ccccc1)C(C(=O)O)C(=O)O)c1ccc(Cl)cc1` (stereo not drawn) [PS182], for which the EC50 in experiment [4] is 26 µM; in experiment [1] (room temperature), 66 µM.
